In US12479823B2, “Compound for use in retinal diseases” (ZHUHAI UNITED LABORATORIES CO., LTD., priority 2018, dated 2025):
pIC50: −log10 of the molar value.

Tested on: not listed separately
Experiment: In vitro aldehyde capture capacity test (complexing with nonanal, HPLC at 254 nm)
Conditions: Time 10 min
Experimental: Objective: dry eye disease is caused by inflammation in eyes, wherein the inflammation may produce aldehydes that will accelerate the inflammation symptoms and worsen the dry eye disease if not eliminated in time. In the experiment, a better compound was selected according to the complexing capacity of the drug and aldehydes in vivo by simulating the in vivo environment.
Procedures: Sulfobutyl-B-cyclodextrin (310 mg) was dissolved in a phosphate buffer (1.25 mL) to prepare a solution.
Nonanal (5.0 mg, 32 μmol, 1.0 eq) and triolein (300 mg) were added to a reaction flask at room temperature, after addition of the prepared solution described above, linoleic acid (300 mg) was added, and finally a dimethyl sulfoxide (0.15 ml) solution containing the compound (32 μmol, 1.0 eq) of the present disclosure was added; the reaction solution was reacted at 20-23° C.
The reaction solution was reacted under stirring for 10 min, 100 min, 200 min, and 300 min respectively, and sampled for high performance liquid chromatography after the solution was stratified after standing for 2 min.
Sampling method: 25 μl of an upper emulsified layer and 50 μl of a lower aqueous phase were sampled by a pipette, and samples were diluted with 1 mL of methanol.
The ultraviolet absorption of the nonanal was weak at 254 nm, so the nonanal had little overall effect on the content of complexed products. Therefore, the percentage contents of complexes at 254 nm under high performance liquid chromatography were compared to observe aldehyde capture and complexing capacities, as shown in FIG. 1 and Table 1:
Taking The compound 7 as an example, after 300 min of reaction, the analytical method for HPLC was XBRIGE 2.5 μm, 3.0*100 mm 5-80CD_XBEH_12 min_0.8.1 cm;
Retention time 6.689 min, 6.787 min, 6.966 min, and 7.102 min were absorption peaks of products complexed with monomolecular aldehyde;
Retention time 8.905 min, 9.010 min, and 9.075 min were absorption peaks of products complexed with bimolecular aldehyde.

Structure (SMILES)	percentage content of complexed products at 254 nm
CC(C)(O)c1cc(F)c(Oc2ccc(N)c(C(C)(C)O)n2)cc1N [Compound 6]	9.738%
CC(C)(O)c1ncc(-c2cnc(C(C)(C)O)c(N)c2)cc1N [Compound 4]	1.475%
CC(C)(O)c1cc(Cl)c(-c2cnc(C(C)(C)O)c(N)c2)cc1N [Compound 8]	4.117%
CC(C)(O)c1nc(Oc2ccc(N)c(C(C)(C)O)n2)ccc1N [Compound 2]	2.658%
CC(C)(O)c1ccc(-n2cc(C(C)(C)O)c(N)cc2=O)cc1N [Compound 9]	12.268%
CC(C)(O)c1nc(-c2ccc(N)c(C(C)(C)O)n2)ccc1N [Compound 1]	0.917%
CC(C)(O)c1cc(F)c(-c2cnc(C(C)(C)O)c(N)c2)cc1N [Compound 7]	6.634%

Same assay, conditions: Time 100 min

Structure (SMILES)	percentage content of complexed products at 254 nm
CC(C)(O)c1cc(F)c(Oc2ccc(N)c(C(C)(C)O)n2)cc1N [Compound 6]	27.850%
CC(C)(O)c1ncc(-c2cnc(C(C)(C)O)c(N)c2)cc1N [Compound 4]	7.663%
CC(C)(O)c1cc(Cl)c(-c2cnc(C(C)(C)O)c(N)c2)cc1N [Compound 8]	12.121%
CC(C)(O)c1nc(Oc2ccc(N)c(C(C)(C)O)n2)ccc1N [Compound 2]	4.097%
CC(C)(O)c1ccc(-n2cc(C(C)(C)O)c(N)cc2=O)cc1N [Compound 9]	31.427%
CC(C)(O)c1nc(-c2ccc(N)c(C(C)(C)O)n2)ccc1N [Compound 1]	4.909%
CC(C)(O)c1cc(F)c(-c2cnc(C(C)(C)O)c(N)c2)cc1N [Compound 7]	20.013%

Same assay, conditions: Time 200 min

Structure (SMILES)	percentage content of complexed products at 254 nm
CC(C)(O)c1cc(F)c(Oc2ccc(N)c(C(C)(C)O)n2)cc1N [Compound 6]	37.847%
CC(C)(O)c1ncc(-c2cnc(C(C)(C)O)c(N)c2)cc1N [Compound 4]	13.353%
CC(C)(O)c1cc(Cl)c(-c2cnc(C(C)(C)O)c(N)c2)cc1N [Compound 8]	15.49%
CC(C)(O)c1nc(Oc2ccc(N)c(C(C)(C)O)n2)ccc1N [Compound 2]	4.721%
CC(C)(O)c1ccc(-n2cc(C(C)(C)O)c(N)cc2=O)cc1N [Compound 9]	43.086%
CC(C)(O)c1nc(-c2ccc(N)c(C(C)(C)O)n2)ccc1N [Compound 1]	4.383%
CC(C)(O)c1cc(F)c(-c2cnc(C(C)(C)O)c(N)c2)cc1N [Compound 7]	29.424%

Same assay, conditions: Time 300 min

Structure (SMILES)	percentage content of complexed products at 254 nm
CC(C)(O)c1cc(F)c(Oc2ccc(N)c(C(C)(C)O)n2)cc1N [Compound 6]	41.686%
CC(C)(O)c1ncc(-c2cnc(C(C)(C)O)c(N)c2)cc1N [Compound 4]	18.636%
CC(C)(O)c1cc(Cl)c(-c2cnc(C(C)(C)O)c(N)c2)cc1N [Compound 8]	19.873%
CC(C)(O)c1nc(Oc2ccc(N)c(C(C)(C)O)n2)ccc1N [Compound 2]	5.796%
CC(C)(O)c1ccc(-n2cc(C(C)(C)O)c(N)cc2=O)cc1N [Compound 9]	48.761%
CC(C)(O)c1nc(-c2ccc(N)c(C(C)(C)O)n2)ccc1N [Compound 1]	6.224%
CC(C)(O)c1cc(F)c(-c2cnc(C(C)(C)O)c(N)c2)cc1N [Compound 7]	36.039%

Same assay, conditions: nonanal 1.0 eq, compound 1.0 eq, 20-23° C., 10-300 min, HPLC 254 nm

Structure (SMILES)	Area under the curve AUC
CC(C)(O)c1cc(F)c(Oc2ccc(N)c(C(C)(C)O)n2)cc1N [Compound 6]	8953 min. Conversion
CC(C)(O)c1ncc(-c2cnc(C(C)(C)O)c(N)c2)cc1N [Compound 4]	3061 min. Conversion
CC(C)(O)c1cc(Cl)c(-c2cnc(C(C)(C)O)c(N)c2)cc1N [Compound 8]	3879 min. Conversion
CC(C)(O)c1nc(Oc2ccc(N)c(C(C)(C)O)n2)ccc1N [Compound 2]	1271 min. Conversion
CC(C)(O)c1ccc(-n2cc(C(C)(C)O)c(N)cc2=O)cc1N [Compound 9]	10284 min. Conversion
CC(C)(O)c1nc(-c2ccc(N)c(C(C)(C)O)n2)ccc1N [Compound 1]	1257 min. Conversion
CC(C)(O)c1cc(F)c(-c2cnc(C(C)(C)O)c(N)c2)cc1N [Compound 7]	6944 min. Conversion

Same assay, conditions: nonanal 1.0 eq, compound 1.0 eq, 20-23° C., 10-300 min, HPLC 254 nm; in %/min

Structure (SMILES)	Slope (linear equation of percentage content of complexed products vs time)
CC(C)(O)c1cc(F)c(Oc2ccc(N)c(C(C)(C)O)n2)cc1N [Compound 6]	0.1083
CC(C)(O)c1ncc(-c2cnc(C(C)(C)O)c(N)c2)cc1N [Compound 4]	0.0589
CC(C)(O)c1cc(Cl)c(-c2cnc(C(C)(C)O)c(N)c2)cc1N [Compound 8]	0.0519
CC(C)(O)c1nc(Oc2ccc(N)c(C(C)(C)O)n2)ccc1N [Compound 2]	0.0103
CC(C)(O)c1ccc(-n2cc(C(C)(C)O)c(N)cc2=O)cc1N [Compound 9]	0.1241
CC(C)(O)c1nc(-c2ccc(N)c(C(C)(C)O)n2)ccc1N [Compound 1]	0.0157
CC(C)(O)c1cc(F)c(-c2cnc(C(C)(C)O)c(N)c2)cc1N [Compound 7]	0.1002

Molecular target: T1, CYP1A2 (Homo sapiens, UniProt P05177)
T1 construct: fused human liver microsomes were selected as a CYP450 enzyme source; from tissue; host or cells: pooled ("fused") human liver microsomes
T1 sequence (P05177 1-516): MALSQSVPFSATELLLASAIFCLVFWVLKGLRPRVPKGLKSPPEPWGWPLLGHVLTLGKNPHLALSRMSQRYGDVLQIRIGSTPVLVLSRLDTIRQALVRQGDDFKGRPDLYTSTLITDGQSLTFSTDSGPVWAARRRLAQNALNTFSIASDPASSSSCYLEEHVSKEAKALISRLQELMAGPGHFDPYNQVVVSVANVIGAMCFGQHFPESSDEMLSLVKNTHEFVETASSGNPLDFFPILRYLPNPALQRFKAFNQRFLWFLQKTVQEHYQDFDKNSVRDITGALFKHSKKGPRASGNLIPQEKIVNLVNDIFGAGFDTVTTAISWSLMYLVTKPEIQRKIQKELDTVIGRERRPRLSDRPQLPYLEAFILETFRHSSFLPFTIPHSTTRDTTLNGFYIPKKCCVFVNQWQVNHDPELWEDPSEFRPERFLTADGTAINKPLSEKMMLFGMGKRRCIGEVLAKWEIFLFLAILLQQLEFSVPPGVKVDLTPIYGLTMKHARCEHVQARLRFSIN
Experiment: Inhibition of human liver microsomal cytochrome P450 CYP1A2
Type: in vitro ADME
Conditions: human liver microsomes, probe substrate, NADPH
Description: (§1) Objective: To study the inhibitory effect of compounds on human liver microsomal cytochrome P450. Experimental procedures: In the study on inhibition of the compounds on the human liver microsomal cytochrome P450 (CYP1A2, CYP2C9, CYP2C19, CYP2D6 and CYP3A4), fused human liver microsomes were selected as a CYP450 enzyme source. […]

Structure (SMILES)	pIC50
CC(C)(O)c1cc(Cl)c(-c2cnc(C(C)(C)O)c(N)c2)cc1N [Compound 8]	< 4.30

Molecular target: T2, CYP2C9 (Homo sapiens, UniProt P11712)
T2 construct: fused human liver microsomes were selected as a CYP450 enzyme source; from tissue; host or cells: pooled ("fused") human liver microsomes
Experiment: Inhibition of human liver microsomal cytochrome P450 CYP2C9
Type: in vitro ADME
Conditions: human liver microsomes, probe substrate, NADPH
Description: as §1

T2 sequence (P11712 whole entry, the tested form may be a part): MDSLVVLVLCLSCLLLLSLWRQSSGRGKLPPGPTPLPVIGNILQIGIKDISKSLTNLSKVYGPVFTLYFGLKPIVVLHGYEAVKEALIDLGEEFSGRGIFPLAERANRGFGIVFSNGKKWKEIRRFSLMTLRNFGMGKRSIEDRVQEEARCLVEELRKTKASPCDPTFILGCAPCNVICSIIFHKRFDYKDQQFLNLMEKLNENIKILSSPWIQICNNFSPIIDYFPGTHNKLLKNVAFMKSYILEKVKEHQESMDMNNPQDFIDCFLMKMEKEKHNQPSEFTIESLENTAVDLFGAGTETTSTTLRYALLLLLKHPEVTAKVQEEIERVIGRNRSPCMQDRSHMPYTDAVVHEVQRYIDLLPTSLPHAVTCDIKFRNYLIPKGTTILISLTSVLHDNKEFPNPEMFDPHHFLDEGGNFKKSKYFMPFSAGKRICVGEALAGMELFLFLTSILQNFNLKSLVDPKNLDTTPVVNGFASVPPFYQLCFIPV

Structure (SMILES)	pIC50
CC(C)(O)c1cc(Cl)c(-c2cnc(C(C)(C)O)c(N)c2)cc1N [Compound 8]	< 4.30

Molecular target: T3, CYP2C19 (Homo sapiens, UniProt P33261)
T3 construct: fused human liver microsomes were selected as a CYP450 enzyme source; from tissue; host or cells: pooled ("fused") human liver microsomes
Experiment: Inhibition of human liver microsomal cytochrome P450 CYP2C19
Type: in vitro ADME
Conditions: human liver microsomes, probe substrate, NADPH
Description: as §1

T3 sequence (P33261 whole entry, the tested form may be a part): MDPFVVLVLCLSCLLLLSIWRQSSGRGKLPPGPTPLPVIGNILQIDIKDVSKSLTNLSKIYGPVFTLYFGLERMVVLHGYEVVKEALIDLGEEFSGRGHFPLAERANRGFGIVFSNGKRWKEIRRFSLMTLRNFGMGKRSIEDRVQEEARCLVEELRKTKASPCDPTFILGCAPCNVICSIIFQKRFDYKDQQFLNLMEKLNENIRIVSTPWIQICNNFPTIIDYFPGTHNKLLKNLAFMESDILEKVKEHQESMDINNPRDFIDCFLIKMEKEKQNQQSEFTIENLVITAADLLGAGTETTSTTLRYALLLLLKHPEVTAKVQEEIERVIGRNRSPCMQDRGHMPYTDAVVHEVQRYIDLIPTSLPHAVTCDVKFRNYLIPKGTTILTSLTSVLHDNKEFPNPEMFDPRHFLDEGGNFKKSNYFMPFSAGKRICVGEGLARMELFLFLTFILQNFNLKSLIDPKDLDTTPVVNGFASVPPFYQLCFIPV

Structure (SMILES)	pIC50
CC(C)(O)c1cc(Cl)c(-c2cnc(C(C)(C)O)c(N)c2)cc1N [Compound 8]	< 4.30

Molecular target: T4, CYP2D6 (Homo sapiens, UniProt P10635)
T4 construct: fused human liver microsomes were selected as a CYP450 enzyme source; from tissue; host or cells: pooled ("fused") human liver microsomes
Experiment: Inhibition of human liver microsomal cytochrome P450 CYP2D6
Type: in vitro ADME
Conditions: human liver microsomes, probe substrate, NADPH
Description: as §1

T4 sequence (P10635 whole entry, the tested form may be a part): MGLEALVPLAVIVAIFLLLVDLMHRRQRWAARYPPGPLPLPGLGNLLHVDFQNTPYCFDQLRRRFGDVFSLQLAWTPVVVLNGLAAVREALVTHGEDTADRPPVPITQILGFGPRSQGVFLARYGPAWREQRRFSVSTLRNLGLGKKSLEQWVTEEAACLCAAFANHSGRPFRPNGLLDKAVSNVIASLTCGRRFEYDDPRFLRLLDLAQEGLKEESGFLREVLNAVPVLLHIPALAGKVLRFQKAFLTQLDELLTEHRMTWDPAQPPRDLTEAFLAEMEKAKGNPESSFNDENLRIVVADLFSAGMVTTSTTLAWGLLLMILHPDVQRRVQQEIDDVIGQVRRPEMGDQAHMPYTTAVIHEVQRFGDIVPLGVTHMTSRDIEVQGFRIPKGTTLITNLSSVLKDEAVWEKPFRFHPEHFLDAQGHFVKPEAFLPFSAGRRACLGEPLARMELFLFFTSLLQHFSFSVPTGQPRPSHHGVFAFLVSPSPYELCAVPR

Structure (SMILES)	pIC50
CC(C)(O)c1cc(Cl)c(-c2cnc(C(C)(C)O)c(N)c2)cc1N [Compound 8]	< 4.30

Molecular target: T5, CYP3A4 (Homo sapiens, UniProt P08684)
T5 construct: fused human liver microsomes were selected as a CYP450 enzyme source; from tissue; host or cells: pooled ("fused") human liver microsomes
Experiment: Inhibition of human liver microsomal cytochrome P450 CYP3A4
Type: in vitro ADME
Conditions: human liver microsomes, two probe substrates, NADPH
Description: as §1

T5 sequence (P08684 whole entry, the tested form may be a part): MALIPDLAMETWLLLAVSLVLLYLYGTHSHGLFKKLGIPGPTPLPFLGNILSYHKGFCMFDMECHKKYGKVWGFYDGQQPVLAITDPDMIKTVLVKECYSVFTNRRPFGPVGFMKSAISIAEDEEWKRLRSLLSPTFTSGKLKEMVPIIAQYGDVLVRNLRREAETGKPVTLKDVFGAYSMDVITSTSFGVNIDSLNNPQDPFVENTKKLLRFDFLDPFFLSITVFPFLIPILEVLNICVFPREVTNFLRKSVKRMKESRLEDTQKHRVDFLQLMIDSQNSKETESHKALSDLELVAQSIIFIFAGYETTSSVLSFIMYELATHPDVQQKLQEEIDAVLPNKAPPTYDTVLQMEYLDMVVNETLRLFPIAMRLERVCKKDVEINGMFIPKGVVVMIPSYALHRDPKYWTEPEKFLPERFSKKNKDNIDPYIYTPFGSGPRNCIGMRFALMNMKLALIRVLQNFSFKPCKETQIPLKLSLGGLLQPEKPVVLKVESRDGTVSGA

Structure (SMILES)	pIC50
CC(C)(O)c1cc(Cl)c(-c2cnc(C(C)(C)O)c(N)c2)cc1N [Compound 8]	< 4.30

Tested on: not listed separately
Experiment: Corneal and plasma drug concentration after eye drops in rats
Type: in vivo
Conditions: SD rats, eye drops; result in words
Experimental: Objective: To Study the Ratio of Corneal to Plasma Drug Concentration After Eye Drops in Rats
Experimental Materials: Male SD Rats, 200-300 g, 7-9 weeks old, Shanghai Lingchang
Experimental procedures: The candidate compound was prepared as a clear solution, and administered to SD rats by eye drops. The vehicle for eye drops was 10% hydroxypropyl β-cyclodextrin aqueous solution, and the drug concentration in the eye drops was 5 mg/mL. Corneal and whole blood samples were collected at 1 and 4 hours, respectively. The corneal samples was homogenized in 15 mM phosphate buffer (PBS): MeoH (2:1, v: v) buffer, the whole blood samples were centrifuged at 3000 r for 10 min, and the supernatant plasma samples were separated. 20 μL of the plasma samples and homogenate samples were mixed with 400 μL of acetonitrile precipitated proteins containing an internal standard, respectively, and 2 μL of the supernatant was injected by centrifugation. The plasma concentrations were quantified by LC-MS/MS analysis; the drug concentrations in the cornea and plasma were measured respectively according to different time points, and the ratio of corneal/plasma concentrations was calculated.

Structure (SMILES)	entry into the cornea by eye drops
CC(C)(O)c1cc(Cl)c(-c2cnc(C(C)(C)O)c(N)c2)cc1N [Compound 8]	could enter the cornea by eye drops
CC(C)(O)c1cc(F)c(-c2cnc(C(C)(C)O)c(N)c2)cc1N [Compound 7]	could enter the cornea by eye drops

Same assay, conditions: male, Sprague-Dawley (SD), rat, cornea, topical, eye drops 5 mg/mL, 1 h, read-out: Corneal Concentration

Structure (SMILES)	concentration at 1 h
CC(C)(O)c1cc(Cl)c(-c2cnc(C(C)(C)O)c(N)c2)cc1N [Compound 8]	1660 nM

Same assay, conditions: male, Sprague-Dawley (SD), rat, cornea, topical, eye drops 5 mg/mL, 4 h, read-out: Corneal Concentration

Structure (SMILES)	concentration at 4 h
CC(C)(O)c1cc(Cl)c(-c2cnc(C(C)(C)O)c(N)c2)cc1N [Compound 8]	167 nM

Same assay, conditions: male, Sprague-Dawley (SD), rat, cornea/plasma, topical, eye drops 5 mg/mL, 1 h, read-out: Corneal Concentration/Plasma Concentration C/P ratio

Structure (SMILES)	Kp at 1 h
CC(C)(O)c1cc(Cl)c(-c2cnc(C(C)(C)O)c(N)c2)cc1N [Compound 8]	12

Same assay, conditions: male, Sprague-Dawley (SD), rat, cornea/plasma, topical, eye drops 5 mg/mL, 4 h, read-out: Corneal Concentration/Plasma Concentration C/P ratio

Structure (SMILES)	Kp at 4 h
CC(C)(O)c1cc(Cl)c(-c2cnc(C(C)(C)O)c(N)c2)cc1N [Compound 8]	3.72

Same assay, conditions: male, Sprague-Dawley (SD), rat, plasma, topical, eye drops 5 mg/mL, 1 h, read-out: Plasma Concentration

Structure (SMILES)	concentration at 1 h
CC(C)(O)c1cc(Cl)c(-c2cnc(C(C)(C)O)c(N)c2)cc1N [Compound 8]	148 nM

Same assay, conditions: male, Sprague-Dawley (SD), rat, plasma, topical, eye drops 5 mg/mL, 4 h, read-out: Plasma Concentration

Structure (SMILES)	concentration at 4 h
CC(C)(O)c1cc(Cl)c(-c2cnc(C(C)(C)O)c(N)c2)cc1N [Compound 8]	36.4 nM
